In US20220119354A1, “DIAMINO-SUBSTITUTED PYRIDINES AND PYRIMIDINES AS HERBICIDES” (FMC Corporation, priority 2019, published 2022):

Experiments:
Format in all cases: in vivo
[1] = system: pigweed (Amaranthus retroflexus); test: Test A preemergence, pigweed; conditions: 0 to 100 scale, 0 is no effect, 100 is complete control
Summary of the method: (§1)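 Greenhouse pot test, loam/sand soil. Pre: directed soil spray at planting; post: foliar spray at 1–2 leaf stage (2–10 cm). Chemical in non-phytotoxic solvent + surfactant. Visual rating ~10 d, 0 = no effect, 100 = complete control.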

[2] = system: ragweed (common ragweed, Ambrosia elatior); test: Test A postemergence, ragweed; conditions: 0 to 100 scale, 0 no effect, 100 complete control
Summary of the method: as §1

[3] = system: galium (catchweed bedstraw, Galium aparine); test: Test A postemergence, galium; conditions: 0 to 100 scale, 0 no effect, 100 complete control
Summary of the method: as §1

kochia (Kochia scoparia) [4] = test: Test A preemergence, kochia; conditions: 0 to 100 scale, 0 is no effect, 100 is complete control
Summary of the method: as §1

[5] = system: foxtail, giant (Setaria faberii); test: Test A postemergence, giant foxtail; conditions: 0 to 100 scale, 0 no effect, 100 complete control
Summary of the method: as §1

[6] = system: ducksalad (Heteranthera limosa); test: Test B flooded paddy test, ducksalad; conditions: Flood, 250 g ai/ha, applied to paddy water, 2-leaf stage, visual evaluation after 13 to 15 d
Summary of the method: (§2)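 Growth to two leaves preceded treatment. Flooding to 3 cm above soil surface, then water-applied compound; depth kept constant. Scored visually relative to controls after 13–15 d greenhouse; 100 means full control.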

kochia (Kochia scoparia) [7] = test: Test A postemergence, kochia; conditions: 0 to 100 scale, 0 no effect, 100 complete control
Summary of the method: as §1

[8] = system: foxtail, giant (Setaria faberii); test: Test A preemergence, giant foxtail; conditions: 0 to 100 scale, 0 is no effect, 100 is complete control
Summary of the method: as §1

[9] = system: sedge, umbrella (small-flower umbrella sedge, Cyperus difformis); test: Test B flooded paddy test, umbrella sedge; conditions: Flood, 250 g ai/ha, applied to paddy water, 2-leaf stage, visual evaluation after 13 to 15 d
Summary of the method: as §2

[10] = system: barnyardgrass (Echinochloa crus-galli); test: Test B flooded paddy test, barnyardgrass; conditions: Flood, 250 g ai/ha, applied to paddy water, 2-leaf stage, visual evaluation after 13 to 15 d
Summary of the method: as §2

rice (Oryza sativa) = test: Test B flooded paddy test, rice; conditions: Flood, 250 g ai/ha, applied to paddy water, 2-leaf stage, visual evaluation after 13 to 15 d
Summary of the method: as §2

[11] = system: wheat (Triticum aestivum); test: Test A postemergence, wheat; conditions: 0 to 100 scale, 0 no effect, 100 complete control
Summary of the method: as §1

corn (Zea mays) = test: Test A postemergence, corn; conditions: 0 to 100 scale, 0 no effect, 100 complete control
Summary of the method: as §1

[12] = system: barnyardgrass (Echinochloa crus-galli); test: Test A preemergence, barnyardgrass; conditions: 0 to 100 scale, 0 is no effect, 100 is complete control
Summary of the method: as §1

[13] = system: ryegrass, Italian (Lolium multiflorum); test: Test A postemergence, Italian ryegrass; conditions: 0 to 100 scale, 0 no effect, 100 complete control
Summary of the method: as §1

[14] = system: blackgrass (Alopecurus myosuroides); test: Test A postemergence, blackgrass; conditions: 0 to 100 scale, 0 no effect, 100 complete control
Summary of the method: as §1

[15] = system: barnyardgrass (Echinochloa crus-galli); test: Test A postemergence, barnyardgrass; conditions: 0 to 100 scale, 0 no effect, 100 complete control
Summary of the method: as §1

[16] = system: pigweed (Amaranthus retroflexus); test: Test A postemergence, pigweed; conditions: 0 to 100 scale, 0 no effect, 100 complete control
Summary of the method: as §1

[17] = system: ragweed (common ragweed, Ambrosia elatior); test: Test A preemergence, ragweed; conditions: 0 to 100 scale, 0 is no effect, 100 is complete control
Summary of the method: as §1

[18] = system: ryegrass, Italian (Lolium multiflorum); test: Test A preemergence, Italian ryegrass; conditions: 0 to 100 scale, 0 is no effect, 100 is complete control
Summary of the method: as §1

Row | Structure (SMILES) | Pigweed plant response rating ([1]; 125 g ai/ha) | Pigweed plant response rating ([1]; 500 g ai/ha) | Plant response rating, Ragweed ([2]; 125 g ai/ha) | Plant response rating, Ragweed ([2]; 500 g ai/ha) | Plant response rating, Galium ([3]; 125 g ai/ha) | Plant response rating, Galium ([3]; 500 g ai/ha) | Kochia plant response rating (kochia (Kochia scoparia) [4]; 125 g ai/ha) | Kochia plant response rating (kochia (Kochia scoparia) [4]; 500 g ai/ha) | Plant response rating, Foxtail, Giant ([5]; 125 g ai/ha) | Plant response rating, Foxtail, Giant ([5]; 500 g ai/ha) | Plant response rating, Ducksalad (0 to 100 scale, 0 is no effect, 100 is complete control) [6] | Plant response rating, Kochia (kochia (Kochia scoparia) [7]; 125 g ai/ha) | Plant response rating, Kochia (kochia (Kochia scoparia) [7]; 500 g ai/ha) | Foxtail, Giant plant response rating ([8]; 125 g ai/ha) | Foxtail, Giant plant response rating ([8]; 500 g ai/ha) | Plant response rating, Sedge, Umbrella (0 to 100 scale, 0 is no effect, 100 is complete control) [9] | Plant response rating, Barnyardgrass (0 to 100 scale, 0 is no effect, 100 is complete control) [10] | Plant response rating, Rice (0 to 100 scale, 0 is no effect, 100 is complete control) (rice (Oryza sativa)) | Plant response rating, Wheat ([11]; 125 g ai/ha) | Plant response rating, Wheat ([11]; 500 g ai/ha) | further results
1 | Nc1nc(NC(c2cc3ccccc3s2)C2CC2)ncc1C(F)(F)F (racemic) [Compound 94] | 60 | 100 | 50 | 70 | 40 | 80 | 60 | 90 | 60 | 90 | 40 | 70 | 90 | 70 | 100 | 45 | 35 | 10 | 0 | 30 | Plant response rating, Corn (corn (Zea mays); 125 g ai/ha): 0; Plant response rating, Corn (corn (Zea mays); 500 g ai/ha): 20; Barnyardgrass plant response rating ([12]; 125 g ai/ha): 0; Barnyardgrass plant response rating ([12]; 500 g ai/ha): 90; Plant response rating, Ryegrass, Italian ([13]; 125 g ai/ha): 50; Plant response rating, Ryegrass, Italian ([13]; 500 g ai/ha): 90; Plant response rating, Blackgrass ([14]; 125 g ai/ha): 0; Plant response rating, Blackgrass ([14]; 500 g ai/ha): 0; Plant response rating, Barnyardgrass ([15]; 125 g ai/ha): 40; Plant response rating, Barnyardgrass ([15]; 500 g ai/ha): 90; Plant response rating, Pigweed ([16]; 125 g ai/ha): 90; Plant response rating, Pigweed ([16]; 500 g ai/ha): 100; Ragweed plant response rating ([17]; 125 g ai/ha): 50; Ragweed plant response rating ([17]; 500 g ai/ha): 90; Ryegrass, Italian plant response rating ([18]; 125 g ai/ha): 50; Ryegrass, Italian plant response rating ([18]; 500 g ai/ha): 90
2 | C[C@@H](Nc1nc(N)c(C(F)(F)F)c(C(F)(F)F)n1)c1cc2ccccc2o1 [Compound 65] | 0 | 0 | 0 | 0 | 0 | 0 | 0 | 0 | 0 | 0 | 0 | 0 | 60 | 0 | 0 | 0 | 0 | 0 | 30 | 30 | Plant response rating, Corn (corn (Zea mays); 125 g ai/ha): 0; Plant response rating, Corn (corn (Zea mays); 500 g ai/ha): 0; Barnyardgrass plant response rating ([12]; 125 g ai/ha): 0; Barnyardgrass plant response rating ([12]; 500 g ai/ha): 0; Plant response rating, Ryegrass, Italian ([13]; 125 g ai/ha): 0; Plant response rating, Ryegrass, Italian ([13]; 500 g ai/ha): 0; Plant response rating, Blackgrass ([14]; 125 g ai/ha): 0; Plant response rating, Blackgrass ([14]; 500 g ai/ha): 0; Plant response rating, Barnyardgrass ([15]; 125 g ai/ha): 0; Plant response rating, Barnyardgrass ([15]; 500 g ai/ha): 0; Plant response rating, Pigweed ([16]; 125 g ai/ha): 0; Plant response rating, Pigweed ([16]; 500 g ai/ha): 30; Ragweed plant response rating ([17]; 125 g ai/ha): 0; Ragweed plant response rating ([17]; 500 g ai/ha): 40; Ryegrass, Italian plant response rating ([18]; 125 g ai/ha): 0; Ryegrass, Italian plant response rating ([18]; 500 g ai/ha): 0
